Assay [1] in a line: Antiproliferative activity against human BT474 cells overexpressing HER2 at 10 uM by MTT assay. It counts as functional. The following applies: BT-474. Background: Tetrazolium assays rely on reduction of a dye to a coloured formazan, in cell work by metabolically active cells.
Assay [2] in a line: Antiproliferative activity against human BT474 cells overexpressing HER2 by MTT assay. Type of assay: functional, cell-based. Conditions: BT-474.
The target of assay [3] is T1, Receptor tyrosine-protein kinase erbB-2 (Homo sapiens, UniProt P04626). Nature of the assay: Inhibition of human full length HER2 assessed as phosphorylation state at 10 uM by ELISA assay.
T1 sequence (P04626 whole entry): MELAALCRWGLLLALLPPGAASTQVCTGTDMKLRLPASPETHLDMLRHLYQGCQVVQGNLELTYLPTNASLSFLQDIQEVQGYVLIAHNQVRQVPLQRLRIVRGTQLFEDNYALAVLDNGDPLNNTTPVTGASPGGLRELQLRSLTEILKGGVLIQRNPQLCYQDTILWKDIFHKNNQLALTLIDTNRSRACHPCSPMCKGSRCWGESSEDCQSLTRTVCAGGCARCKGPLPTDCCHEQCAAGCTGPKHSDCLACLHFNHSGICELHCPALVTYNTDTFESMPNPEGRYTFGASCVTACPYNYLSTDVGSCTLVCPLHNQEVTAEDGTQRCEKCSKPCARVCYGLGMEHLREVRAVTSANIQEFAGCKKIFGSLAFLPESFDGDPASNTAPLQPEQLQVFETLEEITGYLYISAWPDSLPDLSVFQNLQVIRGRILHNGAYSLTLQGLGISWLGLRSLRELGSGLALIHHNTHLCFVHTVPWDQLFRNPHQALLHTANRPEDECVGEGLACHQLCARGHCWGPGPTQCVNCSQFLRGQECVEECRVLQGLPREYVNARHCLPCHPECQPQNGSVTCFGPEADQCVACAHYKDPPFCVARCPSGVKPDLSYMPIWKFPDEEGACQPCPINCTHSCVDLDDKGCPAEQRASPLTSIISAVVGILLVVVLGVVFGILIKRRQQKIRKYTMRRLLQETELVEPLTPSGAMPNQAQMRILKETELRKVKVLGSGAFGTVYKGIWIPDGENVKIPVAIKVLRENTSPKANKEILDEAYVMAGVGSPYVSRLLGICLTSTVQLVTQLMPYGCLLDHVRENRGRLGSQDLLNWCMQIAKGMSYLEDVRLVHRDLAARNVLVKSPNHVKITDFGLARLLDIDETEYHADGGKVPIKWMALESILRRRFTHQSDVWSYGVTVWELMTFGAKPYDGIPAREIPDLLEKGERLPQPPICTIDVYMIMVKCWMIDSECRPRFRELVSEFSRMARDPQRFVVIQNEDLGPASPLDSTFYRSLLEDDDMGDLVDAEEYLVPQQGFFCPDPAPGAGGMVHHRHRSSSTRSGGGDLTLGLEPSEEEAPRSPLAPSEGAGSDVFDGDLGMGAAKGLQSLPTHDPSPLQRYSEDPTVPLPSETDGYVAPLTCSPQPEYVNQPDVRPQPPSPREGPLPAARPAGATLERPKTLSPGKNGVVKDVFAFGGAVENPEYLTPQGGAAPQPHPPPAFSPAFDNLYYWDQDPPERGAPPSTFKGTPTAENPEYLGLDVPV
The target in assay [4] is T2, Epidermal growth factor receptor (Homo sapiens, UniProt P00533). Nature of the assay: Inhibition of human full length HER1 assessed as phosphorylation state at 10 uM by ELISA assay. On the technique in general: In an ELISA, binding on a coated surface is turned into a signal by an enzyme label.
T2 sequence (P00533 whole entry): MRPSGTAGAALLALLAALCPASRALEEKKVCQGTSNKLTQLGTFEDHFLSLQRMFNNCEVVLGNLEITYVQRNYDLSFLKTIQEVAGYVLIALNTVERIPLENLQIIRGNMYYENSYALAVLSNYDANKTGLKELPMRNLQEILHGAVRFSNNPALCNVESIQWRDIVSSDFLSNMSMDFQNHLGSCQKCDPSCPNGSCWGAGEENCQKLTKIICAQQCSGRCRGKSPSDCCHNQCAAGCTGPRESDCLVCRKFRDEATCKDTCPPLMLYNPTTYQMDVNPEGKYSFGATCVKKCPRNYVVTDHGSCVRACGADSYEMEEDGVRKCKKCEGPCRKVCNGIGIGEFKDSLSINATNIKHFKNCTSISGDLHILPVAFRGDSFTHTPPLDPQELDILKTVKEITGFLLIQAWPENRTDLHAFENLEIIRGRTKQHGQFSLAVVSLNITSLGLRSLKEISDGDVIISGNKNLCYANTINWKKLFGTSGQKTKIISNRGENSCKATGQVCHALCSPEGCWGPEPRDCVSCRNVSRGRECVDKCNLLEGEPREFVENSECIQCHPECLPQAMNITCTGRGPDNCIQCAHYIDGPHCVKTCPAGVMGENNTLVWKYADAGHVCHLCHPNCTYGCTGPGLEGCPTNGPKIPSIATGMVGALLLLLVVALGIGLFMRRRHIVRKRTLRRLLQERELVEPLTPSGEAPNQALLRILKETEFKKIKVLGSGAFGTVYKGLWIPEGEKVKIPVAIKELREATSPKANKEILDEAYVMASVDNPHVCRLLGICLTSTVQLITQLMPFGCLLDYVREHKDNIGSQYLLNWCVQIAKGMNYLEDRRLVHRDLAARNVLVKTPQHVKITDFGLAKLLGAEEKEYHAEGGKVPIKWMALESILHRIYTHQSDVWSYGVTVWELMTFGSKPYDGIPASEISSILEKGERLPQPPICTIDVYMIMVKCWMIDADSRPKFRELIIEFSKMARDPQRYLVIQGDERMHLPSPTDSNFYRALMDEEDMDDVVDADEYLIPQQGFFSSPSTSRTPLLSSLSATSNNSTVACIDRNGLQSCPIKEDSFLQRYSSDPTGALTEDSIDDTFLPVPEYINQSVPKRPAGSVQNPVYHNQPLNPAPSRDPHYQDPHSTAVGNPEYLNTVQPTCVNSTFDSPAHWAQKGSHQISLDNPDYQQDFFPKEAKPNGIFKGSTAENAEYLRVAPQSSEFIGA
The nature of assay [5]: Antiproliferative activity against human SKBR3 cells overexpressing HER2 by MTT assay. It counts as functional, cell-based. The following applies: SK-BR-3.
Assay [6] concerns the target T2, Epidermal growth factor receptor. Nature of the assay: Inhibition of human full length HER1 assessed as phosphorylation state by ELISA assay.
In assay [7] the target is T1, Receptor tyrosine-protein kinase erbB-2. Nature of the assay: Inhibition of human full length HER2 assessed as phosphorylation state by ELISA assay.
Assay [8] can be described thus: Antiproliferative activity against human SKBR3 cells overexpressing HER2 at 10 uM by MTT assay. Type of assay: functional. The following applies: SK-BR-3.

A word on the inhibition: it is the share of the control response that was lost under treatment. As a reminder, the IC50 is the concentration that inhibits the measured activity by half. The compound `Cc1ccc(C(=O)COc2cccc(-c3cnc4ccccc4n3)c2)cc1` showed an inhibition at 10 µM in assay [1] of 56.2%. Besides, the figures for the IC50 in assay [2] and in assay [5] were 314 nM and 3110 nM, respectively. Also, the inhibition in assay [3] was 67%; in assay [4], 83.9%.

`Brc1cccc(CNc2ccc(-c3nc4ccccc4o3)cc2)c1`: at 10 µM the inhibition in assay [1] was 51.8%. For the same compound, the IC50 in assay [2] was 343 nM; in assay [5] it was 1240 nM. Besides, the inhibition was 73.1% in assay [3] and 79.9% in assay [4].

With `N#Cc1cnn(-c2ccccc2)c1NC(=O)CSc1nnc(-c2ccco2)n1-c1ccc(F)cc1`, testing at 10 µM in assay [1] gave an inhibition of 9.56%.

`O=[N+]([O-])c1cc(-c2ccc(/C=N/c3nc4ccccn4c3-c3ccco3)o2)ccc1Cl` yielded an inhibition at 10 µM in assay [1] of 77%. The 50% inhibitory concentration (IC50) came out at 1100 nM in assay [2] and 3170 nM in assay [5]. Also, the inhibition in assay [3] is 67.1%; in assay [4], 80.5%.

On to `O=C(COC(=O)c1cc(O)nc2ccccc12)c1ccc2ccccc2c1`, for which, in assay [1], the inhibition at 10 µM was 17%.

`CN1C(=O)C(O)(CC(=O)c2cccc(-n3cccc3)c2)c2ccccc21` (configuration not stated) registered an inhibition at 10 µM in assay [1] of 7.25%.

Take `O=C(Cc1c[nH]c2ccccc12)NNC(=S)Nc1ncccc1Br`: the IC50 amounted to 8490 nM in assay [6] and 12400 nM in assay [7]. The same compound yielded an inhibition at 10 µM in assay [8] of 71.5%.

The compound `O=C(Cc1c[nH]c2ccccc12)NNC(=S)Nc1cccnc1` showed an inhibition at 10 µM in assay [8] of 21.2%.

As for `c1cncc(Nc2nnc(Cc3c[nH]c4ccccc34)o2)c1`, in assay [8], testing at 10 µM gave an inhibition of 33.4%.

On to `Cc1ccn2c(C(=O)N/N=C/c3cn(-c4ccccc4)nc3-c3cccs3)c(C)nc2c1`, for which the inhibition at 10 µM in assay [1] turned out to be 48.2%.

For the compound `O=C(CSc1nnc2ccc(-c3ccccc3)nn12)NC(=O)Nc1ccccc1`, at 10 µM the inhibition in assay [1] was 52.7%. Also, the values for the IC50 in assay [2] and in assay [5] were 802 nM and 1640 nM, respectively. The inhibition in assay [3] amounted to 75.1%; in assay [4] it was 76.1%.

On to `COc1ccccc1OCC(=O)Nc1cccc(-c2nc3ccccc3c(=O)o2)c1`, for which the inhibition at 10 µM in assay [1] was determined as 35%.

As for `COc1nc(N/N=C/c2ccc(-c3ccc(Cl)c([N+](=O)[O-])c3)o2)nc(N2CCOCC2)n1`, in assay [1], at 10 µM the inhibition was 39.8%.

For `Cc1ccc2c(C)nc(Nc3nc(O)cc(CSc4nnnn4-c4ccccc4)n3)nc2c1`, the inhibition at 10 µM in assay [1] worked out at 72.7%. For the same compound, the 50% inhibitory concentration (IC50) in assay [2] was 755 nM; in assay [6], 3920 nM; in assay [7], 6030 nM; in assay [5] it was 1030 nM. The inhibition in assay [3] stood at 85.8%; in assay [4], 83%.

As to `Nc1ncn(Cc2ccccc2)c2nc(SCCOc3ccccc3F)nc1-2`, the inhibition at 10 µM in assay [1] was 61.4%. Further, the figures for the concentration for half-maximal inhibition (IC50) in assay [2] and in assay [5] were 426 nM and 2260 nM, respectively. The inhibition in assay [3] is 72.1%; in assay [4], 81.8%.

Compound `Brc1cccnc1Nc1nnc(Cc2c[nH]c3ccccc23)o1` displayed an inhibition at 10 µM in assay [8] of 37.2%.

As to `O=C(CSc1nc(-c2cccs2)cc(C(F)(F)F)n1)Nc1ccc2c(c1)OCO2`, the inhibition at 10 µM in assay [1] was found to be 47.9%.

Take `c1ccc(-n2nnnc2Oc2cccc(CNCc3ccc4c(c3)OCO4)c2)cc1`: in assay [1], the inhibition at 10 µM was found to be 27.2%.

Compound `Cc1nnc2sc(-c3ccc(NCc4ccc(F)cc4)cc3)nn12` showed an inhibition at 10 µM in assay [1] of 51%.

The values above are taken from ChEMBL document CHEMBL3393043, “Computer-aided identification of novel anticancer compounds with a possible dual HER1/HER2 inhibition mechanism” (Bioorg Med Chem Lett, 2015).
